Laboratory results from US10787462B2, “Heterocyclic compound” (TAKEDA PHARMACEUTICAL COMPANY LIMITED, priority 2015, dated 2020).

Target: T1, human RIPK1 (1-375) (Homo sapiens, UniProt Q13546)
T1 construct: human RIPK1 (1-375) gene; GST; made in house; host or cells: Sf-9 insect cells
T1 sequence (Q13546 1-375): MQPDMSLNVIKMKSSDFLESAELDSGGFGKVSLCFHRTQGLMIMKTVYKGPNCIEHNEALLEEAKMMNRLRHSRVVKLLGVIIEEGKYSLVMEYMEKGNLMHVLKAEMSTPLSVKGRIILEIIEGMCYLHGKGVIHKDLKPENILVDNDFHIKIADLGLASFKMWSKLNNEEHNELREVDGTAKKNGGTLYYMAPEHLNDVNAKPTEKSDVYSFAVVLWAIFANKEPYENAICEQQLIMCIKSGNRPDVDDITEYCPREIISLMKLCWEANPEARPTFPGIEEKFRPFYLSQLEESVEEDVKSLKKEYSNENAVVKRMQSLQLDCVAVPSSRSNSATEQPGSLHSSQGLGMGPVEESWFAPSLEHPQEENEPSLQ
Assay: Human RIPK1 enzyme inhibitory effect (ADP-Glo Kinase Assay)
Type: biochemical
Conditions: well without enzyme = 100% inhibition; for inhibition at 10 µM: read-out: human RIPK1 enzyme inhibitory effect at 10 μM (% inhibition), 10 μM test compound; for human RIPK1 enzyme inhibitory effect at 10 μM (% inhibition): 10 μM test compound
Protocol: Experimental Example 1: Human RIPK1 Enzyme Inhibitory Effect
Enzyme was prepared by transducing human RIPK1 (1-375) gene to Sf-9 insect cells, and purifying using GST affinity column, and enzyme activity evaluation was performed using the enzyme. The enzyme was used after preservation at −70° C. The RIPK1 enzyme inhibitory activity of the test compound was measured using ADP-Glo™ Kinase Assay (Promega) according the following experiment methods. The test compound diluted with assay buffer (25 mM HEPES (pH 7.5), 10 mM MgCl2, 0.01% Tween-20, 2 mM DTT) was added to 384 well plate by each 2 μL. Next, RIPK1 enzyme solution diluted with the assay buffer was added thereto by each 2 μL, and the mixture was incubated at room temperature for 20 min. After the incubation, 0.6 mM ATP solution was added thereto by each 2 μL to initiate an enzyme reaction. The mixture was incubated at room temperature for 120 min, and ADP-Glo solution prepared according to Promega protocol was added to the 384 well plate by each 3 μL, and the reaction was performed at room temperature for 40 min. Then, Kinase-Detection solution was added to the 384 well plate by each 6 μL, and the reaction was performed at room temperature for 40 min. After the reaction, the luminescence intensity was measured by plate reader Envision (PerkinElmer).

Row | inhibition at 10 µM | Compound | further results
1 | 101% | Cc1c2c(nn1Cc1ccccc1)C(=O)N([C@H]1COc3cc(C(N)=O)ccc3N(C)C1=O)CC2 [Example 88, (3S)-3-(2-benzyl-3-methyl-7-oxo-2,4,5,7-tetrahydro-6H-pyrazolo[3,4-c]pyridin-6-yl)-5-methyl-4-oxo-2,3,4,5-tetrahydro-1,5-benzoxazepine-8-carboxamide] | 
2 | 101% | CN1C(=O)[C@@H](N2CCc3c(nn(Cc4cnccn4)c3Cl)C2=O)COc2cc(Cl)ccc21 [Example 146, (3S)-8-chloro-3-(3-chloro-7-oxo-2-(pyrazin-2-ylmethyl)-2,4,5,7-tetrahydro-6H-pyrazolo[3,4-c]pyridin-6-yl)-5-methyl-2,3-dihydro-1,5-benzoxazepin-4(5H)-one] | 
3 |  | CN1C(=O)C(N2CCc3c(nn(Cc4ccccc4)c3Cl)C2=O)CCc2cn(C)nc21 (stereo not drawn) [Example 114, 6-(2-benzyl-3-chloro-7-oxo-2,4,5,7-tetrahydro-6H-pyrazolo[3,4-c]pyridin-6-yl)-2,8-dimethyl-2,5,6,8-tetrahydropyrazolo[3,4-b]azepin-7(4H)-one] | human RIPK1 enzyme inhibitory effect at 10 μM (% inhibition) (10 µM): 101%
4 | 97% | CN1C(=O)[C@@H](N2CCc3cn(Cc4ccccc4F)nc3C2=O)COc2cc(C#N)ccc21 [Example 43, (3S)-3-(2-(2-fluorobenzyl)-7-oxo-2,4,5,7-tetrahydro-6H-pyrazolo[3,4-c]pyridin-6-yl)-5-methyl-4-oxo-2,3,4,5-tetrahydro-1,5-benzoxazepine-8-carbonitrile] | 
5 | 100% | CN1C(=O)[C@@H](N2CCc3cn(Cc4ccc(Cl)cc4F)nc3C2=O)COc2ccccc21 [Example 168, (3S)-3-(2-(4-chloro-2-fluorobenzyl)-7-oxo-2,4,5,7-tetrahydro-6H-pyrazolo[3,4-c]pyridin-6-yl)-5-methyl-2,3-dihydro-1,5-benzoxazepin-4(5H)-one] | 
6 |  | CN1C(=O)C(N2CCc3c(nn(Cc4ccccc4)c3Cl)C2=O)CCc2c1cnn2C (stereo not drawn) [Example 128, 6-(2-benzyl-3-chloro-7-oxo-2,4,5,7-tetrahydro-6H-pyrazolo[3,4-c]pyridin-6-yl)-1,4-dimethyl-4,6,7,8-tetrahydropyrazolo[4,3-b]azepin-5(1H)-one] | human RIPK1 enzyme inhibitory effect at 10 μM (% inhibition) (10 µM): 84%
7 | 98% | CN1C(=O)C(N2CCc3c(nn(Cc4ccccc4)c3Cl)C2=O)CCc2nn(C)cc21 (stereo not drawn) [Example 92, 6-(2-benzyl-3-chloro-7-oxo-2,4,5,7-tetrahydro-6H-pyrazolo[3,4-c]pyridin-6-yl)-2,4-dimethyl-2,6,7,8-tetrahydropyrazolo[4,3-b]azepin-5(4H)-one] | 
8 | 91% | CN1C(=O)[C@@H](N2CCn3cc(Cc4ccccc4)nc3C2=O)COc2ccccc21 [Example 7, (3S)-3-(2-benzyl-8-oxo-5,6-dihydroimidazo[1,2-a]pyrazin-7(8H)-yl)-5-methyl-2,3-dihydro-1,5-benzoxazepin-4(5H)-one] | 
9 | 99% | CN1C(=O)C(N2CCc3c(nn(Cc4ccccc4F)c3Cl)C2=O)CCc2ccncc21 (stereo not drawn) [Example 103, 3-(3-chloro-2-(2-fluorobenzyl)-7-oxo-2,4,5,7-tetrahydro-6H-pyrazolo[3,4-c]pyridin-6-yl)-1-methyl-1,3,4,5-tetrahydro-2H-pyrido[3,4-b]azepin-2-one] | 
10 | 101% | CN1C(=O)[C@@H](N2CCc3cn(Cc4ccccc4)nc3C2=O)COc2cc(Br)ccc21 [Example 41, (3S)-3-(2-benzyl-7-oxo-2,4,5,7-tetrahydro-6H-pyrazolo[3,4-c]pyridin-6-yl)-8-bromo-5-methyl-2,3-dihydro-1,5-benzoxazepin-4(5H)-one] | 
11 | 99% | CN1C(=O)[C@@H](N2CCc3cn(Cc4ccccc4C#N)nc3C2=O)COc2ccccc21 [Example 28, 2-((6-((3S)-5-methyl-4-oxo-2,3,4,5-tetrahydro-1,5-benzoxazepin-3-yl)-7-oxo-4,5,6,7-tetrahydro-2H-pyrazolo[3,4-c]pyridin-2-yl)methyl)benzonitrile] | 
12 | 101% | CN1C(=O)[C@@H](N2CCc3c(nn(Cc4cnccn4)c3Cl)C2=O)COc2cc(F)ccc21 [Example 75, (3S)-3-(3-chloro-7-oxo-2-(pyrazin-2-ylmethyl)-2,4,5,7-tetrahydro-6H-pyrazolo[3,4-c]pyridin-6-yl)-8-fluoro-5-methyl-2,3-dihydro-1,5-benzoxazepin-4(5H)-one] | 
13 | 101% | CNC(=O)c1ccc2c(c1)OC[C@H](N1CCc3cn(Cc4c(F)cccc4F)nc3C1=O)C(=O)N2C [Example 116, (3S)-3-(2-(2,6-difluorobenzyl)-7-oxo-2,4,5,7-tetrahydro-6H-pyrazolo[3,4-c]pyridin-6-yl)-N,5-dimethyl-4-oxo-2,3,4,5-tetrahydro-1,5-benzoxazepine-8-carboxamide] | 
14 | 100% | COCc1ccc2c(c1)OC[C@H](N1CCc3c(nn(Cc4ccccc4)c3Cl)C1=O)C(=O)N2C [Example 141, (3S)-3-(2-benzyl-3-chloro-7-oxo-2,4,5,7-tetrahydro-6H-pyrazolo[3,4-c]pyridin-6-yl)-8-(methoxymethyl)-5-methyl-2,3-dihydro-1,5-benzoxazepin-4(5H)-one] | 
15 | 80% | O=C1Nc2ccccc2CCC1N1Cc2cn(Cc3ccccc3)nc2C1=O (stereo not drawn) [Example 4, 3-(2-benzyl-6-oxo-2,6-dihydropyrrolo[3,4-c]pyrazol-5(4H)-yl)-1,3,4,5-tetrahydro-2H-1-benzazepin-2-one] | 
16 | 102% | CN1C(=O)[C@@H](N2CCc3c(nn(Cc4ccccc4)c3Cl)C2=O)COc2cc(-c3cn[nH]c3)ccc21 [Example 140, (3S)-3-(2-benzyl-3-chloro-7-oxo-2,4,5,7-tetrahydro-6H-pyrazolo[3,4-c]pyridin-6-yl)-5-methyl-8-(1H-pyrazol-4-yl)-2,3-dihydro-1,5-benzoxazepin-4(5H)-one] | 
17 |  | (3S)-7-chloro-3-(3-chloro-1-oxo- 2-(pyrazin-2-ylmethyl)-2,4,5,7- tetrahydro-6H-pyrazolo[3,4- c]pyridin-6-yl)-5-methyl-2,3- dihydro-1,5-benzoxazepin-4(5H)- one [Example 74] | human RIPK1 enzyme inhibitory effect at 10 μM (% inhibition): 97%
18 | 98% | CN1C[C@H](N2CCc3cn(Cc4ccccc4)nc3C2=O)C(=O)N(C)c2ccccc21 [Example 151, (3S)-3-(2-benzyl-7-oxo-2,4,5,7-tetrahydro-6H-pyrazolo[3,4-c]pyridin-6-yl)-1,5-dimethyl-1,3,4,5-tetrahydro-2H-1,5-benzodiazepin-2-one] | 
19 |  | CN1C(=O)C(N2CCc3c(nn(Cc4ccccc4)c3Cl)C2=O)CCc2ccncc21 (stereo not drawn) [Example 102, 3-(2-benzyl-3-chloro-7-oxo-2,4,5,7-tetrahydro-6H-pyrazolo[3,4-c]pyridin-6-yl)-1-methyl-1,3,4,5-tetrahydro-2H-pyrido[3,4-b]azepin-2-one] | human RIPK1 enzyme inhibitory effect at 10 μM (% inhibition) (10 µM): 88%
20 | 99% | CN1C(=O)[C@@H](N2CCc3cn(Cc4ccccc4)nc3C2=O)COc2cc(C#N)ccc21 [Example 13, (3S)-3-(2-benzyl-7-oxo-2,4,5,7-tetrahydro-6H-pyrazolo[3,4-c]pyridin-6-yl)-5-methyl-4-oxo-2,3,4,5-tetrahydro-1,5-benzoxazepine-8-carbonitrile] | 
21 | 101% | CN1C(=O)[C@@H](N2CCc3cn(Cc4c(F)cccc4F)nc3C2=O)COc2cc(C#N)ccc21 [Example 45, (3S)-3-(2-(2,6-difluorobenzyl)-7-oxo-2,4,5,7-tetrahydro-6H-pyrazolo[3,4-c]pyridin-6-yl)-5-methyl-4-oxo-2,3,4,5-tetrahydro-1,5-benzoxazepine-8-carbonitrile] | 
22 |  | CN1C(=O)C(N2CCc3c(nn(Cc4ccccc4F)c3Cl)C2=O)CCc2nn(C)cc21 (stereo not drawn) [Example 121, 6-(3-chloro-2-(2-fluorobenzyl)-7-oxo-2,4,5,7-tetrahydro-6H-pyrazolo[3,4-c]pyridin-6-yl)-2,4-dimethyl-2,6,7,8-tetrahydropyrazolo[4,3-b]azepin-5(4H)-one] | human RIPK1 enzyme inhibitory effect at 10 μM (% inhibition) (10 µM): 86%
23 | 97% | CN1C(=O)[C@@H](N2CCc3cn(Cc4ccc(C#N)cc4)nc3C2=O)COc2ccccc21 [Example 30, 4-((6-((3S)-5-methyl-4-oxo-2,3,4,5-tetrahydro-1,5-benzoxazepin-3-yl)-7-oxo-4,5,6,7-tetrahydro-2H-pyrazolo[3,4-c]pyridin-2-yl)methyl)benzonitrile] | 
24 | 99% | CN1C(=O)[C@@H](N2CCc3cn(Cc4cc(C#N)ccc4F)nc3C2=O)COc2ccccc21 [Example 172, 4-fluoro-3-((6-((3S)-5-methyl-4-oxo-2,3,4,5-tetrahydro-1,5-benzoxazepin-3-yl)-7-oxo-4,5,6,7-tetrahydro-2H-pyrazolo[3,4-c]pyridin-2-yl)methyl)benzonitrile] | 
